Measurements as given in patent publication EP2457906A1, “Derivatives of 1,2,4-benzothiadiazine dioxide, their preparation and use as allosteric modulators of the AMPA receptor” (Universita'del Salento, priority 2010, dated 2012).

Tested on: AMPA-kainate receptors
Assay: Patch-clamp (whole-cell voltage-clamp) recording of kainate-evoked currents in primary cultures of cortical neurons
Type: cell-based
Settings: rat cortical neurons; for type of allosteric modulation of the AMPA receptor: effect on current induced by Kainate; for Variation in the current induced by Kainate, %: compound at 10 µM, mean ± SE (n = 4-6)
Protocol: The pharmacological studies were conducted using the patch-clamp technique on primary cultures of cortical neurons.
The primary neuronal cultures were obtained from 1-day-old Sprague-Dawley rats. The cells were dispersed with trypsin (0.24 mg/ml) and plated out at a density of 10^6 cells/ml on 35mm Petri dishes pretreated with poly-L-lysine (10 µg/ml). The cells were cultivated in Eagle's Basal Medium with the addition of 10% foetal calf serum, 2 mM glutamine and 100 µg/ml gentamicin, and stored in an incubator at 37°C in 5% carbon dioxide.
To prevent astroglial proliferation, cytosine arabinofuranoside was added (1-10 µM) to the cultures 24h after plating out.
The patch-clamp recordings were performed on a single cell after 7 days in culture using the voltage-clamp technique in whole-cell configuration (Hamill OP, Marty A, Neher E, Sakmann B, Sigworth FJ (1981): Improved patchclamp techniques for high-resolution current recording from cell and cell-free membrane patches. Pflugers Arch, 85-100). […] The currents were amplified with an Axopatch 1 D amplifier (Axon Instruments, Foster City, CA), filtered at 5 kHz and digitised at 10 kHz using the pClamp software (Axon Instruments, Foster City, CA).
The intracellular solutions contained: KCI 140mM, MgCl2 3mM, EGTA 5mM, HEPES 5mM, ATP-Na 2mM, and were brought to pH 7.3 with KOH. The cells were continuously perfused with an external solution containing: NaCl 145mM, KCI 5mM, CaCl2 1mM, HEPES 5mM, glucose 5mM, saccharose 20Mm, and brought to pH 7.4 with NaOH.
The compounds tested were dissolved in DMSO and diluted to the final concentration in the extracellular solution. (The DMSO in the final concentration is less than 0.1%.) The kainate (SIGMA) was dissolved in the extracellular solution. All of the substances were applied directly by gravity through a "Y-tube" perfusion system (Murase K, Ryu PD, Randic M (1989). Excitatory and inhibitory amino acids and peptide-induced responses in acutely isolated rat spinal dorsal horn neurons. Neurosci Lett 103, 56-63).
The electrophysiological data was analysed using the software pCLAMP 6.3 (Axon Instruments).
The compounds according to the invention have proven to be potent allosteric modulators of the response mediated by AMPA-kainate receptors. […] The values are expressed as the mean ± SE (n = 4-6).

**Q.** How did the EC50 (potentiation of currents induced by Kainate, calculated from dose/response data of Figure 1) turn out when `CC1Nc2c(-c3ccoc3)cc(Cl)cc2S(=O)(=O)N1` (stereo not drawn) [(1), 7-chloro-5-(3-furyl)-3-methyl-3,4-dihydro-2H-1,2,4-benzothiadiazine 1,1-dioxide] was run?
**A.** 1100 nM

**Q.** And the “type of allosteric modulation of the AMPA receptor” value (“type” for short) (10 µM)?
**A.** positive allosteric modulator

**Q.** And the “increase of the current induced by Kainate” value (10 µM, text statement on the data of Table 1)?
**A.** around 360 times

**Q.** And the “EC2X (i.e. the concentration at which the AMPA receptor currents are potentiated 2 times)” value (calculated from dose/response data of Figure 1)?
**A.** 500 nM

**Q.** And the “Variation in the current induced by Kainate, %” value (shortened to “Variation … %”)?
**A.** 358±80%

**Q.** How did the “type” value (10 µM) turn out when `CC1Nc2c(-c3ccsc3)cc(Cl)cc2S(=O)(=O)N1` (stereo not drawn) [(2), 7-chloro-3-methyl-5-thien-3-yl-3,4-dihydro-2H-1,2,4-benzothiadiazine 1,1-dioxide] was run?
**A.** positive allosteric modulator

**Q.** What about the “Variation … %” value of the same compound?
**A.** 214±41%

**Q.** For `CC1Nc2c(-c3ccco3)cc(Cl)cc2S(=O)(=O)N1` (stereo not drawn) [(3), 7-chloro-5-(2-furyl)-3-methyl-3,4-dihydro-2H-1,2,4-benzothiadiazine 1,1-dioxide], which “type” value (10 µM) is on record?
**A.** positive allosteric modulator

**Q.** What about the “Variation … %” value of the same compound?
**A.** 80±16%

**Q.** How did the “type” value (10 µM) turn out when `CCC1Nc2c(-c3ccco3)cc(Cl)cc2S(=O)(=O)N1` (stereo not drawn) [(4), 7-chloro-5-(2-furyl)-3-ethyl-3,4-dihydro-2H-1,2,4-benzothiadiazine 1,1-dioxide] was run?
**A.** negative allosteric modulators

**Q.** What about the “Variation … %” value of the same compound?
**A.** -32±12%

**Q.** `O=S1(=O)NCNc2c(-c3ccco3)cc(Cl)cc21` [(5), 7-chloro-5-(2-furyl)-3,4-dihydro-2H-1,2,4-benzothiadiazine 1,1-dioxide] was tested. Which “type” value (10 µM) did it give?
**A.** positive allosteric modulator

**Q.** And the “Variation … %” value?
**A.** 20±5%

**Q.** Which results are given for `CC1=Nc2c(-c3ccco3)cc(Cl)cc2S(=O)(=O)N1` [(6), 7-chloro-5-(2-furyl)-3-methyl-1,2,4-benzothiadiazine 1,1-dioxide]?
**A.** type of allosteric modulation of the AMPA receptor (10 µM): negative allosteric modulators; Variation in the current induced by Kainate, %: -21±9%
